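Briefly, cells in 96-well plates were exposed to five compound concentrations for 48 h, and endpoints were estimated by linear interpolation. GI50 is the concentration that inhibits growth by half. TGI is the concentration that stops growth completely.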 Some results are limits rather than exact numbers.

The record followed here is PubChem BioAssay (NCI).

What all share (assay): DTP human tumour cell line panel, 48 h
Test [1] deals with HS 578T breast.
In test [2] the test system is OVCAR-4 ovarian.
Test [3] concerns SK-MEL-28 melanoma.
In test [4] the test system is HOP-92 NSCLC.
The subject of test [5] is CCRF-CEM leukemia.
Test [6] concerns OVCAR-3 ovarian.
The subject of test [7] is ACHN renal.
In test [8] the test system is MALME-3M melanoma.
Test [9] concerns NCI-H460 lung.
The test system of test [10] is NCI/ADR-RES ovarian.

As for `O=C(C=C=Nc1ccccc1)C(=O)N=C=Cc1ccccc1`, the GI50 (usually the concentration at which growth is held to half of that of the control) in [1] was 2.26 µM; in [2] it was 2.15 µM; in [3] it was 1.88 µM; in [4], 5.57 µM; in test [5] it was 0.724 µM; in test [6], 1.48 µM. The GI50 in [7] was 1.76 µM; in test [8], 1.54 µM; in test [9], 14.1 µM; in test [10], 2.95 µM. Further, the TGI (in general, the concentration at which net growth stops) in test [1] is 7.31 µM; in [2] it was 6.41 µM; in test [3], 3.85 µM; in [4] it was 20.1 µM; in test [5], more than 100 µM; in test [6], 2.97 µM. For the same molecule, the TGI in [7] is 4.6 µM; in [8], 5.33 µM; in test [9] it was 44.1 µM; in test [10] it was 14.7 µM.
For the molecule `O=C(/C=C/c1ccco1)c1ccc(Nc2nc(Nc3ccc(F)cc3)nc(Nc3ccc(F)cc3)n2)cc1`, the GI50 is 22.8 µM in test [1]; 8.99 µM in [2]; 18.3 µM in test [3]; 4.17 µM in test [4]; 19 µM in [5]; 16.9 µM in [6]. The GI50 in test [7] was more than 100 µM; in test [8] it was 43.7 µM; in test [9], 13.1 µM; in test [10], 15.1 µM. In addition, the TGI is 65 µM in [1]; 36.2 µM in test [2]; 44.3 µM in test [3]; 41.6 µM in test [4]; more than 100 µM in test [5]; 45.9 µM in [6]. Further, the TGI in [7] was more than 100 µM; in test [8], more than 100 µM; in [9], 59 µM; in [10], 52.1 µM.
Regarding `NC(=O)c1ccc(N(C(N)=O)c2c(F)cccc2F)nc1-c1ccc(F)cc1F`, the GI50 was more than 100 µM in test [1]; more than 100 µM in [2]; more than 100 µM in test [3]; 28 µM in test [4]; more than 100 µM in test [5]; more than 100 µM in test [6]. For the same molecule, the GI50 in [7], in test [8], in test [9] and in test [10] was more than 100 µM in each case. Further, the TGI in [1], in [2], in test [3], in test [4], in test [5] and in test [6] was more than 100 µM each time. Besides, the TGI in test [7], in [8], in [9] and in test [10] was more than 100 µM each time.
Regarding `Oc1ccc(Cl)cc1/C=N\NC(=S)N/N=C/c1cc(Cl)ccc1O`, the GI50 was 8.37 µM in test [1]; 2.25 µM in [2]; 4.58 µM in [3]; 1.92 µM in [4]; 0.468 µM in [5]; 1.87 µM in test [6]. Further, the GI50 in test [7] was 2.35 µM; in [8], 2.14 µM; in test [9] it was 2.58 µM; in [10] it was 2.78 µM. The TGI in [1] was more than 100 µM; in test [2], 50.3 µM; in [3] it was more than 100 µM; in test [4], 14.7 µM; in [5], 12.1 µM; in [6], 11.7 µM. The TGI was more than 100 µM in [7], 52.7 µM in [8], 13.3 µM in test [9] and 32.8 µM in test [10].
`O=C(Nc1cccc(C(F)(F)F)c1)c1cc2ccccc2cc1O`: the GI50 was 1.89 µM in test [1]; 2.04 µM in test [2]; 3.05 µM in test [3]; 0.252 µM in [4]; 3.67 µM in test [5]; 0.783 µM in test [6]. Moreover, the GI50 in test [7] is 1.78 µM; in [8] it was 1.15 µM; in [9], 1.41 µM; in [10], 2.17 µM. For the same molecule, the TGI is more than 44 µM in test [1]; more than 71.1 µM in [2]; more than 100 µM in test [3]; 1.61 µM in [4]; more than 100 µM in test [5]; 6.1 µM in test [6]. The TGI was more than 30.4 µM in test [7], 6.74 µM in [8], more than 44.1 µM in [9] and 9.34 µM in test [10].
As to `Cc1ccc(-c2n[nH]c(=O)c3noc(-c4ccc(C)cc4)c23)cc1`, the GI50 was 1.31 µM in test [1]; 10.1 µM in test [2]; 10.2 µM in [3]; 0.194 µM in test [4]; 2.45 µM in test [5]; 1 µM in test [6]. Further, the GI50 in [7] is 3.16 µM; in [8], 1.09 µM; in [9], 0.751 µM; in test [10] it was 0.623 µM. The concentration for total growth inhibition (TGI) in test [1] is 15.9 µM; in test [2], 43.6 µM; in [3], more than 100 µM; in test [4] it was 0.962 µM; in test [5], more than 100 µM; in test [6] it was 3.41 µM. Besides, the TGI in [7] was 73.3 µM; in [8] it was 23.4 µM; in [9] it was 25 µM; in test [10], more than 100 µM.
Consider `N#C/C(=C\c1ccc2[nH]ccc2c1)C(=O)c1ccc(O)c(O)c1`, for which the TGI in test [1] is more than 100 µM; in [2], more than 100 µM; in [3], more than 100 µM; in test [4], more than 100 µM; in test [5] it was more than 85 µM; in [6], 79.3 µM. In addition, the TGI in test [7], in [8], in test [9] and in [10] was more than 100 µM each time.
As to `O=C(/C=C/c1cccc2ccccc12)Nc1ncc(Cc2ccccc2)s1`, the GI50 was 0.703 µM in test [1]; 2.12 µM in test [2]; 3.89 µM in [3]; 0.371 µM in test [4]; 0.852 µM in test [5]; 0.738 µM in test [6]. In addition, the GI50 in [7] was 1.95 µM; in test [8], 0.627 µM; in test [9] it was 0.861 µM; in test [10], 0.713 µM. The TGI was 5.34 µM in test [1]; 5.16 µM in test [2]; more than 100 µM in [3]; 4.73 µM in test [4]; more than 100 µM in test [5]; 3.22 µM in test [6]. In addition, the total growth inhibition concentration (TGI) in [7] is 6.02 µM; in [8] it was more than 100 µM; in [9] it was 5.19 µM; in [10], more than 69.3 µM.
